Tests used:
Type in all cases: in vivo, Arabidopsis thaliana
Arabidopsis seedlings [1] = experiment: Leaf growth of Arabidopsis seedlings in vitro after transfer to Dex medium; conditions: 5 μM Dexamethasone in ½ MS medium, transfer at 9DAS
Experimental: Seedlings were grown in vitro on half-strength Murashige and Skoog medium (Murashige and Skoog 1962) containing 1% sucrose and 6.5 g/L agar at 21° C. under a 16-hour day (110 μmol m^−2 s^−1) and 8-hour night regimen. The growth medium was overlaid with nylon mesh (Prosep, Zaventem, Belgium) of 20 μm pore size to facilitate transfer to induction medium. For expression analysis and growth experiments, 64 resp. 32 seeds were equally distributed on a 15-cm diameter petri dish. […] At 9DAS, when the third leaf is fully proliferating, the mesh with seedlings was transferred to plates containing ½ MS medium with 5 μM Dexamethasone (Dex). For expression analysis and growth experiments, all seedlings were transferred to Dex, including the control lines, to account for the possible effects of Dex on growth or gene expression. […] Here, the non-treated plants will serve as a control for the Dex-induced plants of the same line. […] Growth analysis was performed on the third true leaf harvested at different time points after transfer to Dex. After clearing with 70% ethanol, leaves were mounted in lactic acid on microscopic slides. […] Photographs of leaves and drawings were used to measure leaf area and cell size, respectively, using ImageJ v1.37o (NIH; on the World Wide Web at //rsb.info.nih.gov/ij/), and from these cell numbers were calculated by dividing leaf area with cell area.

Arabidopsis seedlings [2] = experiment: Gene expression in the third leaf after transfer to Dex medium; conditions: 5 μM Dexamethasone in ½ MS medium, transfer at 9DAS
Experimental: At 9DAS, when the third leaf is fully proliferating, the mesh with seedlings was transferred to plates containing ½ MS medium with 5 μM Dexamethasone (Dex). For expression analysis and growth experiments, all seedlings were transferred to Dex, including the control lines, to account for the possible effects of Dex on growth or gene expression. […] Here, the non-treated plants will serve as a control for the Dex-induced plants of the same line. […] Leaf 3 was harvested from plants at 1, 2, 4 and 24 hours after transfer. Samples were obtained from three independent experiments and from multiple plates within the experiment. Whole seedlings were harvested rapidly in an excess of RNAlater solution (Ambion) and, after overnight storage at 4° C., dissected under a binocular microscope on a cooling plate with precision microscissors. Dissected leaves were transferred to a new tube, frozen in liquid nitrogen, and ground with a Retsch machine and 3-mm metal balls. RNA was extracted with TriZol (Invitrogen) and further purified with the RNEASY® Mini Kit (Qiagen). DNA digestion was done on-column with Rnase-free DNase I (Roche). […] Melting curves were analyzed to check primer specificity. […] Ct refers to the number of cycles at which SYBR Green fluorescence reaches an arbitrary value during the exponential phase of the cDNA amplification.

[3] = system: Arabidopsis wild-type plants; experiment: Growth of the third leaf under mild osmotic stress (mannitol); conditions: wild-type line, transfer at 9DAS to medium with 25 mM Mannitol
Experimental: It was opted to study growing plants upon exposure to mild stress, not threatening plant survival but only reducing plant growth by an average of 50%. For loss-of-function analysis, the double erf5/erf6 T-DNA insertion mutant and a wild-type line were grown on control medium until 9DAS and then transferred to growth medium containing 25 mM of the osmoticum Mannitol. Subsequently, upon transfer, growth of the third leaf was measured.
Seedlings were grown in vitro on half-strength Murashige and Skoog medium (Murashige and Skoog 1962) containing 1% sucrose and 6.5 g/L agar at 21° C. under a 16-hour day (110 μmol m^−2 s^−1) and 8-hour night regimen. The growth medium was overlaid with nylon mesh (Prosep, Zaventem, Belgium) of 20 μm pore size to facilitate transfer to induction medium. For expression analysis and growth experiments, 64 resp. 32 seeds were equally distributed on a 15-cm diameter petri dish. […]
Growth analysis was performed on the third true leaf harvested at different time points after transfer to Dex. […] Photographs of leaves and drawings were used to measure leaf area and cell size, respectively, using ImageJ v1.37o (NIH; on the World Wide Web at //rsb.info.nih.gov/ij/), and from these cell numbers were calculated by dividing leaf area with cell area.

Row | Structure (SMILES) | effect on growth (Arabidopsis seedlings [1]) | effect on gene expression (Arabidopsis seedlings [2]) | growth of the third leaf [3]
1 | C[C@@H]1C[C@H]2[C@@H]3CCC4=CC(=O)C=C[C@]4(C)[C@@]3(F)[C@@H](O)C[C@]2(C)[C@@]1(O)C(=O)CO [Dex, Dexamethasone] | no effect | no effect | –
2 | OC[C@@H](O)[C@@H](O)[C@H](O)[C@H](O)CO [Mannitol] | – | – | expected growth reduction
